Experimental data taken from patent US11793849B2, “Method of Chinese herbal medicine extract used for treating multiple diseases caused by drug resistant bacteria infection” (priority 2016, dated 2023).
In brackets after ≈: the same amount, converted by molar mass. Read-outs that look alike come from different tables or passages of the source.

Columns and labels:
[1] = system: MDRPA; test: Checkerboard assay (combined-use MIC, FIC); type: cell-based, Pseudomonas aeruginosa; conditions: for FIC, all strains / MIC50 of the antibiotic after combined use / MIC90 of the antibiotic after combined use / reduction of the antibiotic's MIC50 vs single use / reduction of the antibiotic's MIC90 vs single use / share of strains with FIC ≤ 0.5: 20 MDRPAs; for combined-use MIC: EA (P. clypearia water extract) combined with AMK
Summary of the method: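 Checkerboard combinations of S20b and antibiotic run per NCCLS method against ESBL E. coli, MDR A. baumannii and MDR P. aeruginosa.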

[2] = system: ATCC27853; test: MIC determination, control strain; type: cell-based
Procedure: Determination methods of a Minimal Inhibitory Concentration (MIC) and a Minimum Bactericidal Concentration (MBC) of a test product: the MIC and the MBC of the Pithecellobium clypearia Benth water or ethanol extract to the MDRAB are determined by a microdilution broth method.

[3] = system: MDRPA; test: MIC determination, microdilution broth method;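 note: broth microdilution per NCCLS recommendations, testing Pithecellobium clypearia water or ethanol extracts against multidrug-resistant Pseudomonas aeruginosa, with MIC50 and MIC90 derived statistically from individual MICs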
[4] = antibiotic with 10% ethanol extract
[5] = antibiotic with 60% ethanol extract
[6] = antibiotic with 95% ethanol extract
[7] = antibiotic with EA (water extract)
[8] = 20 MDRPAs, EA = 60% ethanol extract
[9] = 20 MDRPAs, EA = 95% ethanol extract
[10] = MDRPAs P1-P20, single use, EA=P. clypearia 10% ethanol extract
[11] = MDRPAs P1-P20, single use, EA=P. clypearia water extract
[12] = single use, 20 MDRPAs, section of the 10% ethanol extract
[13] = single use, 20 MDRPAs, section of the 60% ethanol extract
[14] = single use, 20 MDRPAs, section of the 95% ethanol extract

NCC[C@H](O)C(=O)N[C@@H]1C[C@H](N)[C@@H](O[C@H]2O[C@H](CN)[C@@H](O)[C@H](O)[C@H]2O)[C@H](O)[C@H]1O[C@H]1O[C@H](CO)[C@@H](O)[C@H](N)[C@H]1O [AMK, Amikacin]
FIC, all strains [1, 4]: ≤ 2
MIC50 of the antibiotic after combined use [1, 4]: 0.0625 µg/mL
MIC90 of the antibiotic after combined use [1, 4]: 4 µg/mL
reduction of the antibiotic's MIC50 vs single use [1, 4]: 93.75%
reduction of the antibiotic's MIC90 vs single use [1, 4]: 87.5%
share of strains with FIC ≤ 0.5 [1, 4]: 30%
FIC, all strains [1, 5]: ≤ 2
MIC50 of the antibiotic after combined use [1, 5]: 0.0625 µg/mL
MIC90 of the antibiotic after combined use [1, 5]: 2 µg/mL
reduction of the antibiotic's MIC50 vs single use [1, 5]: 93.75%
reduction of the antibiotic's MIC90 vs single use [1, 5]: 93.75%
share of strains with FIC ≤ 0.5 [1, 5]: 20%
FIC, all strains [1, 6]: ≤ 2
MIC50 of the antibiotic after combined use [1, 6]: 0.12 µg/mL
MIC90 of the antibiotic after combined use [1, 6]: 4 µg/mL
reduction of the antibiotic's MIC50 vs single use [1, 6]: 87.5%
reduction of the antibiotic's MIC90 vs single use [1, 6]: 87.5%
share of strains with FIC ≤ 0.5 [1, 6]: 40%
FIC, all strains [1, 7]: ≤ 2
MIC50 of the antibiotic after combined use [1, 7]: 0.0625 µg/mL
MIC90 of the antibiotic after combined use [1, 7]: 2 µg/mL
reduction of the antibiotic's MIC50 vs single use [1, 7]: 93.75%
reduction of the antibiotic's MIC90 vs single use [1, 7]: 93.75%
share of strains with FIC ≤ 0.5 [1, 7]: 35%
combined-use MIC ([1]; strain P1): 0.0625 µg/mL
combined-use MIC ([1]; strain P2): 0.0625 µg/mL
combined-use MIC ([1]; strain P3): 1 µg/mL
combined-use MIC ([1]; strain P4): 0.5 µg/mL
combined-use MIC ([1]; strain P5): 0.0625 µg/mL
combined-use MIC ([1]; strain P6): 64 µg/mL
combined-use MIC ([1]; strain P7): 0.0625 µg/mL
combined-use MIC ([1]; strain P8): 0.5 µg/mL
combined-use MIC ([1]; strain P9): 0.0625 µg/mL
combined-use MIC ([1]; strain P10): 1 µg/mL
combined-use MIC ([1]; strain P11): 0.5 µg/mL
combined-use MIC ([1]; strain P12): 8 µg/mL
combined-use MIC ([1]; strain P13): 0.0625 µg/mL
combined-use MIC ([1]; strain P14): 0.0625 µg/mL
combined-use MIC ([1]; strain P15): 0.0625 µg/mL
combined-use MIC ([1]; strain P16): 0.0625 µg/mL
combined-use MIC ([1]; strain P17): 0.0625 µg/mL
combined-use MIC ([1]; strain P18): 4 µg/mL
combined-use MIC ([1]; strain P19): 0.0625 µg/mL
combined-use MIC ([1]; strain P20): 1 µg/mL
MIC ([2]; EA=P. clypearia 10% ethanol extract, read-out: MIC (single use)): 2 µg/mL (≈ 3.42 µM)
MIC ([2]; EA=P. clypearia water extract, read-out: MIC (single use)): 2 µg/mL (≈ 3.42 µM)
MIC ([2]; single use, EA = 60% ethanol extract, read-out: MIC): 2 µg/mL (≈ 3.42 µM)
MIC ([2]; single use, EA = 95% ethanol extract, read-out: MIC): 2 µg/mL (≈ 3.42 µM)
MIC50 [3, 8]: 1 µg/mL (≈ 1.71 µM)
MIC90 [3, 8]: 32 µg/mL (≈ 54.6 µM)
MIC Range [3, 8]: 1 to 256 µg/mL
MIC50 [3, 9]: 1 µg/mL (≈ 1.71 µM)
MIC90 [3, 9]: 32 µg/mL (≈ 54.6 µM)
MIC Range [3, 9]: 1 to 256 µg/mL
MIC50 [3, 10]: 1 µg/mL (≈ 1.71 µM)
MIC90 [3, 10]: 32 µg/mL (≈ 54.6 µM)
MIC Range [3, 10]: 1 to 256 µg/mL
MIC50 [3, 11]: 1 µg/mL (≈ 1.71 µM)
MIC90 [3, 11]: 32 µg/mL (≈ 54.6 µM)
MIC Range [3, 11]: 1 to 256 µg/mL
MIC50 ([3]; Pseudomonas aeruginosa): 1 µg/mL (≈ 1.71 µM)
MIC90 ([3]; Pseudomonas aeruginosa): 32 µg/mL (≈ 54.6 µM)
MIC ([3]; Pseudomonas aeruginosa, read-out: MIC (single use), strain P1, EA=P. clypearia 10% ethanol extract): 1 µg/mL (≈ 1.71 µM)
MIC ([3]; Pseudomonas aeruginosa, read-out: MIC (single use), strain P1, EA=P. clypearia water extract): 1 µg/mL (≈ 1.71 µM)
MIC ([3]; Pseudomonas aeruginosa, read-out: MIC (single use), strain P2, EA=P. clypearia 10% ethanol extract): 1 µg/mL (≈ 1.71 µM)
MIC ([3]; Pseudomonas aeruginosa, read-out: MIC (single use), strain P2, EA=P. clypearia water extract): 1 µg/mL (≈ 1.71 µM)
MIC ([3]; Pseudomonas aeruginosa, read-out: MIC (single use), strain P3, EA=P. clypearia 10% ethanol extract): 4 µg/mL (≈ 6.83 µM)
MIC ([3]; Pseudomonas aeruginosa, read-out: MIC (single use), strain P3, EA=P. clypearia water extract): 4 µg/mL (≈ 6.83 µM)
MIC ([3]; Pseudomonas aeruginosa, read-out: MIC (single use), strain P4, EA=P. clypearia 10% ethanol extract): 1 µg/mL (≈ 1.71 µM)
MIC ([3]; Pseudomonas aeruginosa, read-out: MIC (single use), strain P4, EA=P. clypearia water extract): 1 µg/mL (≈ 1.71 µM)
MIC ([3]; Pseudomonas aeruginosa, read-out: MIC (single use), strain P5, EA=P. clypearia 10% ethanol extract): 2 µg/mL (≈ 3.42 µM)
MIC ([3]; Pseudomonas aeruginosa, read-out: MIC (single use), strain P5, EA=P. clypearia water extract): 2 µg/mL (≈ 3.42 µM)
MIC ([3]; Pseudomonas aeruginosa, read-out: MIC (single use), strain P6, EA=P. clypearia 10% ethanol extract): 256 µg/mL (≈ 437 µM)
MIC ([3]; Pseudomonas aeruginosa, read-out: MIC (single use), strain P6, EA=P. clypearia water extract): 256 µg/mL (≈ 437 µM)
MIC ([3]; Pseudomonas aeruginosa, read-out: MIC (single use), strain P7, EA=P. clypearia 10% ethanol extract): 1 µg/mL (≈ 1.71 µM)
MIC ([3]; Pseudomonas aeruginosa, read-out: MIC (single use), strain P7, EA=P. clypearia water extract): 1 µg/mL (≈ 1.71 µM)
MIC ([3]; Pseudomonas aeruginosa, read-out: MIC (single use), strain P8, EA=P. clypearia 10% ethanol extract): 1 µg/mL (≈ 1.71 µM)
MIC ([3]; Pseudomonas aeruginosa, read-out: MIC (single use), strain P8, EA=P. clypearia water extract): 1 µg/mL (≈ 1.71 µM)
MIC ([3]; Pseudomonas aeruginosa, read-out: MIC (single use), strain P9, EA=P. clypearia 10% ethanol extract): 1 µg/mL (≈ 1.71 µM)
MIC ([3]; Pseudomonas aeruginosa, read-out: MIC (single use), strain P9, EA=P. clypearia water extract): 1 µg/mL (≈ 1.71 µM)
MIC ([3]; Pseudomonas aeruginosa, read-out: MIC (single use), strain P10, EA=P. clypearia 10% ethanol extract): 4 µg/mL (≈ 6.83 µM)
MIC ([3]; Pseudomonas aeruginosa, read-out: MIC (single use), strain P10, EA=P. clypearia water extract): 4 µg/mL (≈ 6.83 µM)
MIC ([3]; Pseudomonas aeruginosa, read-out: MIC (single use), strain P11, EA=P. clypearia 10% ethanol extract): 1 µg/mL (≈ 1.71 µM)
MIC ([3]; Pseudomonas aeruginosa, read-out: MIC (single use), strain P11, EA=P. clypearia water extract): 1 µg/mL (≈ 1.71 µM)
MIC ([3]; Pseudomonas aeruginosa, read-out: MIC (single use), strain P12, EA=P. clypearia 10% ethanol extract): 32 µg/mL (≈ 54.6 µM)
MIC ([3]; Pseudomonas aeruginosa, read-out: MIC (single use), strain P12, EA=P. clypearia water extract): 32 µg/mL (≈ 54.6 µM)
MIC ([3]; Pseudomonas aeruginosa, read-out: MIC (single use), strain P13, EA=P. clypearia 10% ethanol extract): 2 µg/mL (≈ 3.42 µM)
MIC ([3]; Pseudomonas aeruginosa, read-out: MIC (single use), strain P13, EA=P. clypearia water extract): 2 µg/mL (≈ 3.42 µM)
MIC ([3]; Pseudomonas aeruginosa, read-out: MIC (single use), strain P14, EA=P. clypearia 10% ethanol extract): 2 µg/mL (≈ 3.42 µM)
MIC ([3]; Pseudomonas aeruginosa, read-out: MIC (single use), strain P14, EA=P. clypearia water extract): 2 µg/mL (≈ 3.42 µM)
MIC ([3]; Pseudomonas aeruginosa, read-out: MIC (single use), strain P15, EA=P. clypearia 10% ethanol extract): 2 µg/mL (≈ 3.42 µM)
MIC ([3]; Pseudomonas aeruginosa, read-out: MIC (single use), strain P15, EA=P. clypearia water extract): 2 µg/mL (≈ 3.42 µM)
MIC ([3]; Pseudomonas aeruginosa, read-out: MIC (single use), strain P16, EA=P. clypearia 10% ethanol extract): 256 µg/mL (≈ 437 µM)
MIC ([3]; Pseudomonas aeruginosa, read-out: MIC (single use), strain P16, EA=P. clypearia water extract): 256 µg/mL (≈ 437 µM)
MIC ([3]; Pseudomonas aeruginosa, read-out: MIC (single use), strain P17, EA=P. clypearia 10% ethanol extract): 1 µg/mL (≈ 1.71 µM)
MIC ([3]; Pseudomonas aeruginosa, read-out: MIC (single use), strain P17, EA=P. clypearia water extract): 1 µg/mL (≈ 1.71 µM)
MIC ([3]; Pseudomonas aeruginosa, read-out: MIC (single use), strain P18, EA=P. clypearia 10% ethanol extract): 16 µg/mL (≈ 27.3 µM)
MIC ([3]; Pseudomonas aeruginosa, read-out: MIC (single use), strain P18, EA=P. clypearia water extract): 16 µg/mL (≈ 27.3 µM)
MIC ([3]; Pseudomonas aeruginosa, read-out: MIC (single use), strain P19, EA=P. clypearia 10% ethanol extract): 1 µg/mL (≈ 1.71 µM)
MIC ([3]; Pseudomonas aeruginosa, read-out: MIC (single use), strain P19, EA=P. clypearia water extract): 1 µg/mL (≈ 1.71 µM)
MIC ([3]; Pseudomonas aeruginosa, read-out: MIC (single use), strain P20, EA=P. clypearia 10% ethanol extract): 2 µg/mL (≈ 3.42 µM)
MIC ([3]; Pseudomonas aeruginosa, read-out: MIC (single use), strain P20, EA=P. clypearia water extract): 2 µg/mL (≈ 3.42 µM)
MIC50 [3, 12]: 1 µg/mL (≈ 1.71 µM)
MIC90 [3, 12]: 32 µg/mL (≈ 54.6 µM)
MIC50 [3, 13]: 1 µg/mL (≈ 1.71 µM)
MIC90 [3, 13]: 32 µg/mL (≈ 54.6 µM)
MIC50 [3, 14]: 1 µg/mL (≈ 1.71 µM)
MIC90 [3, 14]: 32 µg/mL (≈ 54.6 µM)
